ChEMBL document CHEMBL1201862, “PubChem BioAssay data set” (2004)
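Briefly, cells in 96-well plates were exposed to five compound concentrations for 48 h, and endpoints were estimated by linear interpolation. Here, GI50 denotes the concentration required for 50% inhibition of growth.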 The source made the active and inactive calls. Cut-off read from the data, not from the text of the source: active = GI50 up to about 1.1 µM and inactive = higher.

Key:
Test in all cases: growth of human tumour cells (NCI), 48 h
ACHN = tested on: ACHN
DU-145 = tested on: DU-145
KM12 = tested on: KM12
PC-3 = tested on: PC-3
UO-31 = tested on: UO-31
MOLT-4 = tested on: MOLT-4
SNB-19 = tested on: SNB-19
M14 = tested on: M14
NCI-H226 = tested on: NCI-H226
SF-539 = tested on: SF-539
EKVX = tested on: EKVX
NCI-H522 = tested on: NCI-H522
UACC-62 = tested on: UACC-62
UACC-257 = tested on: UACC-257
OVCAR-8 = tested on: OVCAR-8
RXF 393 = tested on: RXF 393
SK-MEL-5 = tested on: SK-MEL-5
LOX IMVI = tested on: LOX IMVI
NCI-H23 = tested on: NCI-H23
T47D = tested on: T47D
Hs-578T = tested on: Hs-578T
HL-60 = tested on: HL-60
OVCAR-3 = tested on: OVCAR-3
SF-295 = tested on: SF-295
SN12C = tested on: SN12C
K562 = tested on: K562
A549 = tested on: A549
CCRF-CEM = tested on: CCRF-CEM
HCT-116 = tested on: HCT-116
SF-268 = tested on: SF-268
HOP-62 = tested on: HOP-62
HCC 2998 = tested on: HCC 2998
NCI/ADR-RES = tested on: NCI/ADR-RES
SNB-75 = tested on: SNB-75
U-251 = tested on: U-251
HCT-15 = tested on: HCT-15
RPMI-8226 = tested on: RPMI-8226
COLO 205 = tested on: COLO 205
786-0 = tested on: 786-0
OVCAR-4 = tested on: OVCAR-4
HOP-92 = tested on: HOP-92
SK-MEL-28 = tested on: SK-MEL-28
MDA-MB-435 = tested on: MDA-MB-435
MDA-MB-231 = tested on: MDA-MB-231
MCF7 = tested on: MCF7
Malme-3M = tested on: Malme-3M
NCI-H460 = tested on: NCI-H460
HT-29 = tested on: HT-29
IGROV-1 = tested on: IGROV-1
SK-OV-3 = tested on: SK-OV-3
SK-MEL-2 = tested on: SK-MEL-2
OVCAR-5 = tested on: OVCAR-5
CAKI-1 = tested on: CAKI-1
A498 = tested on: A498
TK-10 = tested on: TK-10
MDA-N = tested on: MDA-N
SW-620 = tested on: SW-620

## Cc1cccc(C(O)c2ccncc2)c1O (stereo unspecified)
ACHN
  GI50: > 100 µM (inactive)
DU-145
  GI50: > 100 µM (inactive)
KM12
  GI50: > 100 µM (inactive)
PC-3
  GI50: > 100 µM (inactive)
UO-31
  GI50: > 100 µM (inactive)
MOLT-4
  GI50: > 100 µM (inactive)
SNB-19
  GI50: > 100 µM (inactive)
M14
  GI50: > 100 µM (inactive)
NCI-H226
  GI50: > 100 µM (inactive)
SF-539
  GI50: > 100 µM (inactive)
EKVX
  GI50: > 100 µM (inactive)
NCI-H522
  GI50: > 100 µM (inactive)
UACC-62
  GI50: 25.8 µM (inactive)
UACC-257
  GI50: > 100 µM (inactive)
OVCAR-8
  GI50: > 100 µM (inactive)
RXF 393
  GI50: 91.6 µM (inactive)
SK-MEL-5
  GI50: > 100 µM (inactive)
LOX IMVI
  GI50: > 100 µM (inactive)
NCI-H23
  GI50: > 100 µM (inactive)
T47D
  GI50: 12.6 µM (inactive)
Hs-578T
  GI50: > 100 µM (inactive)
HL-60
  GI50: > 100 µM (inactive)
OVCAR-3
  GI50: > 100 µM (inactive)
SF-295
  GI50: > 100 µM (inactive)
SN12C
  GI50: > 100 µM (inactive)
K562
  GI50: > 100 µM (inactive)
A549
  GI50: > 100 µM (inactive)
CCRF-CEM
  GI50: > 100 µM (inactive)
HCT-116
  GI50: > 100 µM (inactive)
SF-268
  GI50: > 100 µM (inactive)
HOP-62
  GI50: > 100 µM (inactive)
HCC 2998
  GI50: > 100 µM (inactive)
NCI/ADR-RES
  GI50: > 100 µM (inactive)
SNB-75
  GI50: 76.6 µM (inactive)
U-251
  GI50: > 100 µM (inactive)
HCT-15
  GI50: > 100 µM

## CCOC(=O)CCc1c(C(=O)OCC)[nH]c(/C=C2\NC(=O)C(C)=C2CC)c1C
ACHN
  GI50: 15.5 µM (inactive)
RPMI-8226
  GI50: > 100 µM (inactive)
DU-145
  GI50: 19.3 µM (inactive)
KM12
  GI50: > 100 µM (inactive)
PC-3
  GI50: 26.4 µM (inactive)
COLO 205
  GI50: > 100 µM (inactive)
UO-31
  GI50: 44 µM (inactive)
MOLT-4
  GI50: > 100 µM (inactive)
M14
  GI50: 24.8 µM (inactive)
NCI-H226
  GI50: 36.5 µM (inactive)
SF-539
  GI50: 27.9 µM (inactive)
EKVX
  GI50: 22.2 µM (inactive)
NCI-H522
  GI50: 14.5 µM (inactive)
UACC-62
  GI50: 19.2 µM (inactive)
OVCAR-8
  GI50: 5.83 µM (inactive)
786-0
  GI50: 14.5 µM (inactive)
RXF 393
  GI50: 23.2 µM (inactive)
OVCAR-4
  GI50: 20.4 µM (inactive)
LOX IMVI
  GI50: 22.5 µM (inactive)
T47D
  GI50: 10.1 µM (inactive)
HOP-92
  GI50: 16.1 µM (inactive)
HL-60
  GI50: > 100 µM (inactive)
OVCAR-3
  GI50: 18.5 µM (inactive)
SF-295
  GI50: 17.8 µM (inactive)
SN12C
  GI50: 32.6 µM (inactive)
K562
  GI50: > 100 µM (inactive)
SK-MEL-28
  GI50: 51.8 µM (inactive)
A549
  GI50: 40.1 µM (inactive)
CCRF-CEM
  GI50: > 100 µM (inactive)
MDA-MB-435
  GI50: > 100 µM (inactive)
MDA-MB-231
  GI50: 19.8 µM (inactive)
MCF7
  GI50: 41 µM (inactive)
HCT-116
  GI50: 33.7 µM (inactive)
Malme-3M
  GI50: 10.4 µM (inactive)
SF-268
  GI50: 26.9 µM (inactive)
NCI-H460
  GI50: 44.3 µM (inactive)
HOP-62
  GI50: 14.5 µM (inactive)
HT-29
  GI50: 50.7 µM (inactive)
IGROV-1
  GI50: 4.59 µM (inactive)
NCI/ADR-RES
  GI50: 12.9 µM (inactive)
SK-OV-3
  GI50: 22 µM (inactive)
SNB-75
  GI50: 13.5 µM (inactive)
SK-MEL-2
  GI50: 18.1 µM (inactive)
OVCAR-5
  GI50: 25.6 µM (inactive)
U-251
  GI50: 15.3 µM (inactive)
CAKI-1
  GI50: 24.3 µM (inactive)
HCT-15
  GI50: 26.1 µM

## Nc1nc(Nc2ccccc2)c2[nH]cnc2n1
A498
  GI50: 20.3 µM (inactive)
ACHN
  GI50: 41.9 µM (inactive)
TK-10
  GI50: 46.9 µM (inactive)
RPMI-8226
  GI50: 53.7 µM (inactive)
DU-145
  GI50: 77.3 µM (inactive)
KM12
  GI50: 35.6 µM (inactive)
MDA-N
  GI50: 47.8 µM (inactive)
PC-3
  GI50: > 100 µM (inactive)
COLO 205
  GI50: 89.9 µM (inactive)
UO-31
  GI50: 34.8 µM (inactive)
MOLT-4
  GI50: 38.9 µM (inactive)
SNB-19
  GI50: > 100 µM (inactive)
M14
  GI50: > 100 µM (inactive)
NCI-H226
  GI50: 40.6 µM (inactive)
SF-539
  GI50: > 100 µM (inactive)
EKVX
  GI50: > 100 µM (inactive)
NCI-H522
  GI50: 65.5 µM (inactive)
UACC-62
  GI50: 33.3 µM (inactive)
UACC-257
  GI50: > 100 µM (inactive)
OVCAR-8
  GI50: > 100 µM (inactive)
786-0
  GI50: > 100 µM (inactive)
RXF 393
  GI50: > 100 µM (inactive)
SK-MEL-5
  GI50: 86.5 µM (inactive)
OVCAR-4
  GI50: > 100 µM (inactive)
LOX IMVI
  GI50: 77.6 µM (inactive)
NCI-H23
  GI50: > 100 µM (inactive)
T47D
  GI50: > 100 µM (inactive)
SW-620
  GI50: > 100 µM (inactive)
HOP-92
  GI50: 32.2 µM (inactive)
HL-60
  GI50: 37.3 µM (inactive)
OVCAR-3
  GI50: 89.9 µM (inactive)
SF-295
  GI50: > 100 µM (inactive)
SN12C
  GI50: > 100 µM (inactive)
K562
  GI50: 62.5 µM (inactive)
SK-MEL-28
  GI50: > 100 µM (inactive)
A549
  GI50: > 100 µM (inactive)
CCRF-CEM
  GI50: 50.7 µM (inactive)
MDA-MB-435
  GI50: > 100 µM (inactive)
MDA-MB-231
  GI50: > 100 µM (inactive)
MCF7
  GI50: > 100 µM (inactive)
HCT-116
  GI50: 69 µM (inactive)
Malme-3M
  GI50: 30.6 µM (inactive)
HOP-62
  GI50: > 100 µM (inactive)
HCC 2998
  GI50: 86.3 µM (inactive)
HT-29
  GI50: 63.7 µM (inactive)
IGROV-1
  GI50: 32 µM (inactive)
NCI/ADR-RES
  GI50: > 100 µM (inactive)
SK-OV-3
  GI50: 84.5 µM (inactive)
SNB-75
  GI50: 9.57 µM (inactive)
SK-MEL-2
  GI50: 66.2 µM (inactive)
U-251
  GI50: > 100 µM (inactive)
CAKI-1
  GI50: 49.2 µM (inactive)
HCT-15
  GI50: 52 µM
